Common to all, as to test: biochemical
One assay concerns the target DRB1*1302 (Homo sapiens, UniProt P01903+P01911, A100E/A169T/K41T/L162R/M171V/P40S/Q125H/Q178H/Q39Y/Q99D/R42S/S66N/T262R/V115G/W38E/Y61H). In kind it is binding.
In the next assay the target is DRB5*0101 (Homo sapiens, UniProt P01903+Q30154).
A further assay addresses DRB3*0101 (Homo sapiens, UniProt P01903+P79483). It is filed as binding.
The target in another assay is DR7 (DRB1*0701) (Homo sapiens, UniProt P01903+P01911, A100R/A102G/A103Q/D57E/D86V/E43K/F76Y/K127E/L162R/M171V/P40G/Q125H/Q99D/R33Q/R42Y/R54Q/S133A/S66F/T210M/V115G/Y107V/Y59L/Y89S). It is filed as binding.
The next assay concerns the target DRB1*0802 (Homo sapiens, UniProt P01903+P01911, A100R/A103L/A169T/F76Y/H45Y/I96F/K41T/L162R/M171V/P40S/Q125H/Q178H/Q39Y/Q99D/R218S/R42G/S66Y/V115G/W38E). In kind it is binding.
The target of another assay is DRB1*0901 (Homo sapiens, UniProt P01903+P01911, A100R/A103E/D57H/D86V/F55Y/F60I/F76Y/I96F/K127E/L162R/M171V/P40D/Q125H/Q99R/R33Q/R42F/S133A/S66N/T210M/V115G/W38K/Y107V/Y59G/Y89S). In kind it is binding.
A further assay has as its target DRB1*1501 (Homo sapiens, UniProt P01903+P01911). In kind it is binding.
For another assay, the target named is DR4w4 (DRB1*0401) (Homo sapiens, UniProt P01903+P01911, A100K/A169T/F76Y/I96L/K127E/L162R/M171V/N62H/P40V/Q125Y/R42H/S133A/S149N/S66Y/V115G/V209L/W38E). It is filed as binding.
The target of another assay is DRB1*1101 (Homo sapiens, UniProt P01903+P01911, A100R/A169T/A87E/I96F/K41T/L162R/M171V/P40S/Q125H/Q178H/Q39Y/Q99D/R42S/S66Y/T262R/V115G/W38E).
The next assay concerns the target DRB1*0405 (Homo sapiens, UniProt P01903+P01911, A100R/A169T/D86S/F76Y/I96L/K127E/L162R/M171V/N62H/P40V/Q125Y/R42H/S133A/S149N/S66Y/V115G/V209L/W38E). In kind it is binding.
In a further assay the target is DR1 (DRB1*0101) (Homo sapiens, UniProt P01903+P01911, A100R/D57E/F55L/F60I/F76Y/I96L/L162R/M171V/P40L/Q125E/R42F/V115G/Y59C). It is filed as binding.
The target of another assay is DRB1*1201 (Homo sapiens, UniProt P01903+P01911, A100R/A169T/D57E/D86V/F55L/H45Y/K41T/L162R/M171V/P40S/Q125H/Q178H/Q39Y/Q99D/R42G/S66L/T262R/V114A/V67L/W38E/Y59H/Y61H/Y89S). It is filed as binding.
The target in another assay is DRB4*0101 (Homo sapiens, UniProt P01903+P13762, G164S). In kind it is binding.
For a further assay, the target named is DRB1*0301 (Homo sapiens, UniProt P01903+P01911, A100K/A102G/A103R/A169T/F55Y/I96L/K41T/L162R/M171V/P40S/Q125H/Q178H/Q39Y/R42S/S66N/T106N/T262R/W38E/Y61H). It is filed as binding.

No end group written: not given here.

DRB1*1101, sequence (P01903 26-254 limits assumed, other chains not shown): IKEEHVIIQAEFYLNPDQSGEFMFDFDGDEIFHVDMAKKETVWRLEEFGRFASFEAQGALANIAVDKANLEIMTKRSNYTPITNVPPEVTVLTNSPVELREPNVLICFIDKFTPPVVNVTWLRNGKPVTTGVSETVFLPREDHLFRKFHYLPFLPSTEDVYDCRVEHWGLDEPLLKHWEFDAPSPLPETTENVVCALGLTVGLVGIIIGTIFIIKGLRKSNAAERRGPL
DRB1*1302, sequence (P01903 26-254 limits assumed, other chains not shown): as above
DRB1*0301, sequence (P01903 26-254 limits assumed, other chains not shown): as above

For the molecule LETIYNSQYSNEKWT [Peptide 1601.03], the concentration for half-maximal inhibition (IC50) was 6.8 µM against DRB1*1302; 0.208 µM on DRB5*0101 (Binding affinity DRB5 *0101); above 20 µM against DRB3*0101; above 20 µM on DR7 (DRB1*0701); above 20 µM against DRB1*0802; 6.1 µM against DRB1*0901. The IC50 is 0.563 µM at DRB1*1501; 99 nM against DR4w4 (DRB1*0401); above 20 µM on DRB1*1101 (Binding affinity DRB1 *1101); 3000 nM at DRB1*0405; 8.61 µM on DR1 (DRB1*0101).
Consider `CC(C)C[C@H](NC(=O)[C@H](CCC(=O)O)NC(=O)[C@H](CCCCN)NC(=O)[C@H](C)NC(=O)[C@H](CC(C)C)NC(=O)[C@@H](NC(=O)[C@H](CO)NC(=O)[C@H](CCCNC(=N)N)NC(=O)[C@@H](N)CC(=O)O)C(C)C)C(=O)N[C@@H](CCCCN)C(=O)N[C@@H](Cc1ccccc1)C(=O)N[C@H](C(=O)N[C@H](C(=O)N[C@@H](CC(C)C)C(=O)N[C@H](C(=O)O)C(C)C)[C@@H](C)O)C(C)C` [Peptide 68.0024], for which the IC50 is above 20 µM on DRB3*0101, above 20 µM at DRB1*1101 (Binding affinity DRB1 *1101) and 301 nM against DRB1*1201.
In the case of ADKIYSISMKHPQEM [Peptide 68.0125], the IC50 was above 20 µM at DRB5*0101 (Binding affinity DRB5 *0101), above 20 µM on DRB3*0101, 9250 nM on DRB1*1201 and above 20 µM on DR1 (DRB1*0101).
With `CC[C@H](C)[C@H](NC(=O)[C@H](C)NC(=O)[C@H](CCCCN)NC(=O)[C@H](Cc1c[nH]cn1)NC(=O)[C@H](C)NC(=O)[C@H](CCCCN)NC(=O)[C@H](CO)NC(=O)[C@H](CCCCN)NC(=O)[C@H](CO)NC(=O)[C@@H](NC(=O)[C@H](CC(N)=O)NC(=O)[C@@H](NC(=O)[C@@H]1CCCN1)[C@@H](C)CC)[C@@H](C)CC)C(=O)N[C@@H](CCC(=O)O)C(=O)N[C@@H](CC(C)C)C(=O)O` [Peptide 1601.30], the IC50 on DRB3*0101 is above 20 µM.
Turning to `CC(C)C[C@H](NC(=O)[C@H](CC(=O)O)NC(=O)[C@H](CCCCN)NC(=O)[C@H](Cc1ccccc1)NC(=O)[C@H](C)NC(=O)[C@H](Cc1ccccc1)NC(=O)[C@H](CCC(=O)O)NC(=O)[C@H](Cc1ccccc1)NC(=O)[C@@H](NC(=O)[C@@H](N)CCC(=O)O)C(C)C)C(=O)N[C@@H](Cc1ccccc1)C(=O)N[C@H](C(=O)N[C@H](C(=O)N[C@@H](Cc1ccc(O)cc1)C(=O)N[C@@H](CCCNC(=N)N)C(=O)O)C(C)C)C(C)C` [Peptide 1543.35], the IC50 on DRB5*0101 (Binding affinity DRB5 *0101), at DRB3*0101 and on DRB1*0901 was above 20 µM each time.
In the case of `CC[C@H](C)[C@H](NC(=O)[C@@H](NC(=O)[C@@H]1CCCN1C(=O)CNC(=O)[C@@H](NC(=O)[C@H](CC(C)C)NC(=O)[C@H](CCC(=O)O)NC(=O)[C@H](C)NC(=O)[C@@H](N)Cc1ccccc1)C(C)C)C(C)C)C(=O)N1CCC[C@H]1C(=O)N[C@@H](CCC(N)=O)C(=O)N[C@@H](CC(=O)O)C(=O)N[C@@H](Cc1c[nH]c2ccccc12)C(=O)N[C@@H](CO)C(=O)N[C@H](C(=O)O)[C@@H](C)O` [Peptide 68.0056], the IC50 against DRB1*1302, at DRB5*0101 (Binding affinity DRB5 *0101), at DRB3*0101, against DR7 (DRB1*0701), on DRB1*0802 and against DRB1*0901 was above 20 µM each time. The IC50 on DRB1*1501 and on DRB1*1101 (Binding affinity DRB1 *1101) was above 20 µM each time.
Turning to EISFAGIVTKLPTAN [Peptide 89.0174], the IC50 against DRB3*0101 was 0.07 µM; against DR7 (DRB1*0701) it was 7.8 µM; against DRB1*0802, 11.3 µM; against DRB1*0901 it was above 20 µM; against DRB1*1501, 8.14 µM; against DRB4*0101 it was above 20000 nM. For the same molecule, the IC50 on DRB1*1101 (Binding affinity DRB1 *1101) was above 20 µM; against DRB1*0405, above 20000 nM; against DR1 (DRB1*0101), 18.7 µM.
With HPLYNMSLLKHQSLR [Peptide 68.0008], the results for the IC50 on DRB3*0101 and against DRB1*1201 were above 20 µM and 95 nM, respectively.
In the case of GIVEQTTTSITSLYQ [Peptide 9000.0054], the IC50 at DRB1*1302 was 0.014 µM; at DRB5*0101 (DRB5*0101) it was above 37.6 µM; against DRB3*0101, above 95.2 µM; against DRB1*1501, 0.849 µM; against DRB4*0101 it was 2300 nM; at DRB1*1101 (DRB1*1101), above 10.5 µM.
Turning to RVPVSHSFPHPLYNM [Peptide 68.0006], the IC50 against DRB3*0101 is above 20 µM; on DRB1*0802, above 20 µM; at DR4w4 (DRB1*0401), above 20000 nM; at DRB1*1101 (Binding affinity DRB1 *1101) it was above 20 µM.
With NMSLLKHQSLRPDED [Peptide 68.0009], the IC50 at DRB1*1302, on DRB5*0101 (Binding affinity DRB5 *0101), against DRB3*0101, on DR7 (DRB1*0701), against DRB1*0802 and against DRB1*0901 was above 20 µM in each case. The IC50 on DRB1*1501 is above 20 µM; against DR4w4 (DRB1*0401), above 20000 nM; at DRB1*1101 (Binding affinity DRB1 *1101), above 20 µM.
For the molecule FQVIELQMALETLNA [Peptide 90.0025], the IC50 was 0.187 µM against DRB1*1302; above 20 µM at DRB5*0101 (Binding affinity DRB5 *0101); 2.65 µM against DR7 (DRB1*0701); above 20 µM at DRB1*0802; 1.97 µM at DRB1*0901; 0.449 µM on DRB1*1501. In addition, the IC50 was determined as 15 nM on DRB4*0101; 75 nM against DR4w4 (DRB1*0401); 3.99 µM on DRB1*1101 (Binding affinity DRB1 *1101); 2490 nM against DRB1*0405; 708 nM against DRB1*1201; 0.02 µM against DR1 (DRB1*0101). The molecule further showed an IC50 on DRB1*0301 of 743 nM.
For LDHYENDSKDINSQI [Peptide 1601.29], the IC50 against DRB1*1302 is above 20 µM; at DRB5*0101 (Binding affinity DRB5 *0101), above 20 µM; at DRB3*0101 it was 2.05 µM; at DR7 (DRB1*0701), 19.9 µM; against DRB1*0802, above 20 µM; against DRB1*0901 it was above 20 µM. The half-inhibitory concentration (IC50) at DRB1*1501 was above 20 µM; on DRB4*0101, 554 nM; against DR4w4 (DRB1*0401), above 20000 nM; at DRB1*1101 (Binding affinity DRB1 *1101), above 20 µM; against DRB1*0405, above 20000 nM; on DR1 (DRB1*0101), above 20 µM.
With `CC[C@H](C)[C@H](NC(=O)[C@H](Cc1c[nH]cn1)NC(=O)[C@H](CCSC)NC(=O)[C@H](CCCCN)NC(=O)[C@@H](NC(=O)[C@H](CCCCN)NC(=O)[C@H](CCC(N)=O)NC(=O)[C@@H](NC(=O)[C@H](CO)NC(=O)[C@H](Cc1ccccc1)NC(=O)[C@H](CC(N)=O)NC(=O)CNC(=O)[C@@H](N)[C@@H](C)O)[C@@H](C)O)C(C)C)C(=O)N[C@@H](Cc1c[nH]cn1)C(=O)N[C@@H](CO)C(=O)O` [Peptide 68.0105], the IC50 on DRB3*0101 is above 20 µM.
Consider YIVMSDWTGGA [Peptide 510.33], for which the IC50 is above 10 µM at DRB5*0101 (DRB5*0101), above 33.3 µM against DRB3*0101 and above 6.67 µM on DRB1*1101 (DRB1*1101).
Molecule `CC[C@H](C)[C@H](NC(=O)CNC(=O)[C@H](Cc1ccc(O)cc1)NC(=O)[C@H](CC(C)C)NC(=O)[C@H](CO)NC(=O)[C@H](CC(C)C)NC(=O)[C@H](CC(C)C)NC(=O)[C@H](CO)NC(=O)[C@H](CC(C)C)NC(=O)[C@H](CCC(=O)O)NC(=O)[C@H](CO)NC(=O)[C@H](CC(C)C)NC(=O)[C@H](CCC(=O)O)NC(=O)[C@H](CCCNC(=N)N)NC(=O)[C@@H](N)CC(C)C)C(=O)O` [Peptide 68.0043] showed an IC50 against DRB3*0101 above 20 µM.
For `CC[C@H](C)[C@H](NC(=O)CNC(=O)[C@H](CCC(N)=O)NC(=O)[C@H](CC(C)C)NC(=O)[C@@H](NC(=O)CNC(=O)[C@H](CC(N)=O)NC(=O)[C@H](CS)NC(=O)[C@@H](NC(=O)[C@H](CC(C)C)NC(=O)[C@@H]1CCCN1C(=O)CNC(=O)CN)C(C)C)C(C)C)C(=O)N[C@H](C(=O)N[C@@H](CO)C(=O)O)[C@@H](C)O` [Peptide 68.0079], the half-inhibitory concentration (IC50) against DRB3*0101, against DR7 (DRB1*0701) and on DRB1*1501 was above 20 µM throughout.

A word on the IC50: it is the concentration needed to halve the response being measured. A high value points to weaker potency in that assay.

The values above are taken from patent US9340577B2, “HLA binding motifs and peptides and their uses” (priority 1992, dated 2016).
